Data on 78 compounds can be found in the METLIN SMRT retention time set (Domingo-Almenara et al. 2019).

This data set can be described thus: gradient 5% acetonitrile 3 min, to 50% in 2 min, to 85% in 15 min, held 3 min, 100 µL/min. Particulars: column: Zorbax Extend-C18 2.1 x 50 mm; eluents: water / acetonitrile, 0.1% formic acid. The gist of the method: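 Pure standards were analyzed in mixtures of ~100 molecules using HPLC coupled to a quadrupole time-of-flight mass spectrometer, in both positive and negative ionization mode. Separation used a Zorbax Extend-C18 column (2.1 × 50 mm, 1.8 μm) at 100 μL/min, with water and acetonitrile each containing 0.1% formic acid. Dead and dwell volumes were 40 μL and 900 μL, and data were collected over 3 months. Retention time was read from computationally picked adduct peaks, each inspected manually.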
Regarding `Cc1cc(C)cc(NC(=O)CN2CCC(C(=O)NCc3ccccn3)CC2)c1`, the RP-LC retention time worked out at 548 s.
For `Cn1nc(C(=O)N2CCCCC2)c2c1CCN(C(=O)Nc1ccc3c(c1)OCO3)C2` the value was 717 s.
Regarding `Cc1ccc(NC(=O)C2CCCN(S(=O)(=O)c3c[nH]c(C(=O)N4CCCC4)c3)C2)cc1` (stereo not drawn), the RP-LC retention time was determined as 850 s.
For `COCCCNC(=O)Cn1c(=O)c2cccn2c2ccc(F)cc21` the value was 689 s.
For `COc1cc(Cl)ccc1C(=O)Nc1cc(S(=O)(=O)N2CCSCC2)sc1C` the value was 1090 s; for `CCCn1cc(S(=O)(=O)Nc2ccc(F)c(C)c2)c2cccnc21`, 923 s; for `Cc1cc(-c2nnc(-c3ccccc3)o2)c(C)n1CC(=O)NCC1CCCO1` (stereo not drawn), 770 s.
For `Cn1nc(C2CCCN(C(=O)c3ccco3)C2)n(C2CCCC2)c1=O` (stereo not drawn) the value was 701 s; for `CC(C)COc1cc(=O)n2c(c1C(=O)N1CCOCC1)CCCCC2`, 656 s.
`CCOC(=O)c1ccc(N2C(=O)[C@@H]3Cc4ccccc4CN3C2=O)cc1`: the RP-LC retention time stood at 970 s.
For `COCc1ccc(C(=O)Nc2ccnc3ccc(Cl)cc23)o1` the value was 616 s.
For `COc1cc([C@@H]2c3cc4c(cc3[C@H](O)[C@@H](CO)[C@@H]2C(=O)N2CCN(c3ccc(F)cc3)CC2)OCO4)cc(OC)c1OC` the value was 720 s; for `COc1ccc(-c2nc3cc(C)ccn3c2NC(=O)COc2ccc(Cl)cc2)cc1OC`, 714 s.
For `Cc1cccc(Cn2nc3ccc(S(=O)(=O)N4CCCCCC4)cn3c2=O)c1` the value was 1000 s; for `CCc1nn(CC(=O)N2CCN(c3ncccn3)CC2)c(=O)c2cc3sccc3n12`, 730 s.
`CCc1ccc(C2=C(C)C(N3CCC(NC(=O)NC(C)(C)C)CC3)=NS2(=O)=O)cc1` showed an RP-LC retention time of 928 s.
For `CSc1cccc(NC(=O)Cn2cccc2-c2nc(-c3ccccc3)no2)c1` the value was 1070 s; for `Cc1sc(C)c(S(=O)(=O)N2CCC(C)CC2)c1-c1cc(C(F)(F)F)on1`, 1320 s.
For `Cc1ccc(NC(=O)C2C(=O)N(CCO)C3(C)CC2c2ccccc2O3)cc1` (stereo not drawn) the value was 727 s.
For `CCOC(=O)c1nnc2c(-c3ccc(Cl)cc3)c(C)nn2c1N` the value was 872 s.
For `CCC1Oc2ccc(S(=O)(=O)N3CCC(C(=O)N(C)c4ccc(C)cc4)CC3)cc2NC1=O` (stereo not drawn), the RP-LC retention time came out at 837 s.
For `O=C(c1ccc(Br)o1)N1c2ccccc2CC1c1nnc(C2CCOCC2)o1` (stereo not drawn) the value was 804 s.
For `Cc1nc2ccn(Cc3cccs3)c(=O)c2cc1C(=O)NC1CCCCC1` the value was 801 s.
For `COC(=O)c1ccc(-c2nc3cnccn3c2Nc2cccc(OC)c2)cc1` the value was 846 s.
Take `CCCCN(C)C(=O)C1CCN(c2cn[nH]c(=O)c2)CC1`: the RP-LC retention time came to 640 s.
For `COc1cc(NC(=O)c2cccc([N+](=O)[O-])c2)c(OC)cc1Cl` the value was 921 s; for `Cc1nn(-c2ccc(Cl)cc2)c(C)c1S(=O)(=O)Nc1ccc(S(N)(=O)=O)cc1`, 812 s.
Compound `Cc1nc(N)nc(Nc2ccc(C#N)cc2)c1Br` came in with an RP-LC retention time of 658 s.
Consider `Cc1nc(-c2noc(-c3ccncc3)n2)cn1CC(=O)Nc1ccc(F)cc1`, for which the RP-LC retention time stood at 833 s.
`CCN(CC)S(=O)(=O)c1cc(-c2nnc(-c3ccccc3)o2)ccc1OC` showed an RP-LC retention time of 977 s.
In turn, `CCCNC(=O)C1CCN(c2ccc(SCC(=O)Nc3ccc(OCC)cc3)nn2)CC1` displayed an RP-LC retention time of 639 s.
For `Cc1cccc(OCc2nc(-c3cccc(-c4ccnn4C)c3)no2)c1` the value was 824 s; for `O=C(C1CCN(S(=O)(=O)c2ccc(-c3noc(-c4ccncc4)n3)cc2)CC1)N1CCCC1`, 814 s; for `CCC(=O)N1CCc2sc(S(=O)(=O)N3CCN(c4ccc(OC)cc4)CC3)cc2C1`, 886 s.
For `Cc1ccc(S(=O)(=O)N(C)C)cc1-c1nnc(-c2ccc(F)cc2)o1` the value was 976 s; for `C=CCn1c(=O)c2ccccc2n(Cc2nc(-c3ccc(F)c(Br)c3)no2)c1=O`, 1170 s.
With `CCc1ccccc1NC(=O)N1CC(c2nc(C)no2)C2(CCOCC2)C1` (stereo not drawn), the RP-LC retention time was 731 s.
Consider `COc1ccc(NC(=O)COc2cc(C)nc(N3CCCC3)n2)cc1Cl`, for which the RP-LC retention time turned out to be 653 s.
For `Cn1c(N2CCCC(C(=O)NCc3cccnc3)C2)cc(=O)n(C)c1=O` (stereo not drawn) the value was 558 s.
With `COc1ccc(NC(=O)c2noc3c2CCCCC3)cc1`, the RP-LC retention time worked out at 989 s.
For `Cc1nc2nc(C)c(CCC(=O)N3CCC(Cc4ccccc4)CC3)c(C)n2n1` the value was 804 s; for `COCCNC(=O)CCC1CCN(c2cc(NC3CC3)ncn2)CC1`, 572 s.
For `Cn1cc(CN2CCC(C(=O)NCCCN3CCc4ccccc4C3)CC2)c2cc(Cl)ccc21` the value was 878 s; for `Cc1cccc(N2CCN([C@H]3CS(=O)(=O)C[C@@H]3S(=O)(=O)c3ccccc3)CC2)c1`, 876 s.
For `COC(=O)C1=C(C)NC(C)=C(C(=O)OCCN2CCN(C(c3ccccc3)c3ccccc3)CC2)C1c1cccc([N+](=O)[O-])c1` (stereo not drawn) the value was 1020 s; for `COC(=O)c1ccc2c(=O)n(Cc3ccc(F)cc3)c(N3CCOCC3)nc2c1`, 975 s.
`O=C(C1CCOC1)N1CCCn2nc(-c3cccs3)cc2C1` (stereo not drawn) gave an RP-LC retention time of 678 s.
For `Cc1nc(N2CCN(c3ccccn3)CC2)nc2c1C(=O)CC(c1ccccc1)C2` (stereo not drawn) the value was 757 s; for `Cc1sc2cc(C(=O)NC3CCCCC3)[nH]c2c1CN1CCOCC1`, 671 s.
For `Cc1cnc(-c2ccccc2)n1C1CN(S(=O)(=O)c2cccs2)C1`, the RP-LC retention time turned out to be 653 s.
For `Cc1ccc(F)cc1NC(=O)Cn1nc2cc(-c3ccccc3)nc(C)n2c1=O` the value was 972 s; for `Cc1nc2cc(N3CC(C(=O)NCc4cccc(Cl)c4)CC3=O)ccc2o1` (stereo not drawn), 734 s.
For `Cc1cccc(NC(=O)C2CCN(S(C)(=O)=O)c3cc(Cl)ccc3O2)c1` (stereo not drawn) the value was 1020 s.
For `CN(C)c1ccc(CNC(=O)C2CCN(Cc3cn(C)c4ccc(Cl)cc34)CC2)cc1` the value was 584 s.
For `CSc1ccc(CNC(=O)CSc2cc(N3CCCCC3)ncn2)cc1`, the RP-LC retention time is 767 s.
For `O=C(NCc1cccs1)C1CCN(S(=O)(=O)c2cc(-c3noc(C4CC4)n3)cs2)CC1` the value was 910 s; for `CC(C)CC(=O)Nc1ccc(OCc2cc(C(=O)NC3CC3)no2)cc1`, 747 s.
For `CCn1c(=O)c(N2CCN(C(=O)Nc3ccc(Br)cc3F)CC2)nc2ccccc21` the value was 1030 s.
The compound `Cc1ccc2c(c1)cc(S(=O)(=O)c1ccccc1)c(=O)n2CC(=O)NCc1ccc2c(c1)OCO2` had an RP-LC retention time of 899 s.
For `COc1ccc(-c2ncc3c(n2)CCN(S(=O)(=O)c2ccccc2Cl)C3)cc1` the value was 1070 s.
As for `CCS(=O)(=O)NCc1cccnc1Oc1ccccc1`, the RP-LC retention time is 788 s.
For `CCOC(=O)COC(=O)c1cn(-c2cccc(OC)c2)c(=O)c2ccccc12` the value was 1010 s; for `COc1cc(NC(=O)Cn2c(=O)n(-c3ccc(F)cc3)c3ncccc32)cc(OC)c1`, 849 s; for `Cc1ccc(C)c(S(=O)(=O)N2[C@H]3CC[C@@H]2c2cnc(-c4ccccc4)nc2C3)c1`, 1230 s.
Compound `COCCCN1CN=C(Nc2nc(C)c3cccc(OC)c3n2)NC1` registered an RP-LC retention time of 615 s.
For `O=C(CCc1nc(CSc2nnc(-c3ccccc3)o2)no1)Nc1nccs1` the value was 766 s; for `Cc1ccc(Cl)cc1NC(=O)N1CCc2nc(-c3ccccc3)ncc2C1`, 783 s; for `CCCn1nc2ccc(S(=O)(=O)N3CCC(C)CC3)cn2c1=O`, 893 s.
For `CCN(CC)C(=O)CSc1c(C(C)C)cnc2c1c(=O)n(C)c(=O)n2C` the value was 898 s.
For `COc1ccccc1CC(=O)N1CCCC1c1cc(C(C)C)on1` (stereo not drawn) the value was 902 s.
Turning to `Cc1cc(F)ccc1NC(=O)c1c(O)c2cccnc2n(-c2ccccc2)c1=O`, the RP-LC retention time amounted to 1280 s.
Consider `COc1cccc(Nc2c(-c3ccc(C(=O)O)cc3)nc3cnccn23)c1`, for which the RP-LC retention time is 681 s.
For `CCc1noc(NC(C)=O)c1-c1ccc(OC)c(S(=O)(=O)Nc2ccccc2)c1` the value was 764 s; for `Cc1ccc2ncn(C3CCN(S(=O)(=O)c4ccc(F)c(F)c4)CC3)c(=O)c2c1`, 946 s.
For `Cc1ccc(CN2C[C@@H](CO)[C@H](NC(=O)c3cnccn3)C2)o1` the value was 550 s; for `Cc1ccc(N2CC(c3noc(-c4ccc(OC(F)(F)F)cc4)n3)CC2=O)cc1` (stereo not drawn), 1170 s; for `COc1ccccc1NC(=O)Cn1nc2c(N(C)C3CCCCC3)nccn2c1=O`, 778 s.
For `Cc1cc2c(cc1S(=O)(=O)N1CCCC1C(=O)Nc1ccc3c(c1)OCCO3)OCC(=O)N2` (stereo not drawn) the value was 700 s.
